For data set [1], the system named is Mosquito larvae (Aedes aegypti). The data set is described as follows: whole plant or invertebrate. The settings on record: 48 h, read-out: Mosquito, mortality, 0.05 ppm.
A short description of data set [2]: in vivo. The settings on record: rat, po.
Data set [3] concerns Aphids (Aphis gossypii Glover). Kind of data set: whole plant or invertebrate. The settings on record: in Cucumis sativus, 24 h; for mortality at 4 ppm: read-out: Aphids, mortality, 4 ppm; for mortality at 40 ppm: read-out: Aphids, mortality, 40 ppm (*).
Data set [4] deals with Flour Beetle (Tribolium confusum DuVal). The data set is described as follows: whole plant or invertebrate. The settings on record: in Triticum aestivum, 168 h, read-out: Flour Beetle, mortality, 5 ppm.
Data set [5] deals with insects. The settings on record: against a variety of insects; background, U.S. Pat. No. 3,474,171; cited from earlier work.
Data set [6] relates to American Cockroach (Periplaneta americana L.). The data set is described as follows: whole plant or invertebrate. The settings on record: 24 h; for mortality at 16 ppm: read-out: Cockroach, mortality, 16 ppm.
In data set [7] the test system is rats. The settings on record: background statement; cited from earlier work.
Setting [8] is: read-out: Aphids, mortality, 0.64 ppm.
Setting [9] is: topical, read-out: Cockroach, mortality, 100 ppm.

Where two headings read alike, the source gives them in different places.

The term LD50 denotes the dose expected to kill half of the subjects tested. A low value points to greater toxicity. Take `CN(Sc1ccc(Cl)c(Cl)c1)C(=O)Oc1cccc2c1OC(C)(C)C2` [Compound 11]: in data set [1], the mortality at 0.05 ppm is 100%. The LD50 in data set [2] fell in the range of 25 to 125 mg/kg. In addition, the mortality at 0.64 ppm in data set [3] (setting [8]) was 97%.
Take `CNC(=O)Oc1cccc2c1OC(C)(C)C2` [FURADAN, N-methyl 2,3-dihydro-2,2-dimethyl-7-benzofuranyl carbamate, reference compound]: in data set [1], the mortality at 0.05 ppm was determined as 0%. Further, the mortality at 5 ppm in data set [4] was found to be 10%. Also, the LD50 in data set [2] was 11 mg/kg. Besides, the “contact and systemic activity” value in data set [5] is “high contact and systemic activity”. In data set [6] (topical), the mortality at 16 ppm stood at 100%. For the same compound, the mortality at 100 ppm in data set [6] (setting [9]) was found to be 100%. Moreover, in data set [7], the “oral toxicity, LD50 (rats)” value was 5 to 11 mg/kg. Moreover, in data set [3] (setting [8]), the mortality at 0.64 ppm lay in the range of 73 to 98%. Further, the mortality at 4 ppm in data set [3] worked out at 100%.
Consider `CN(Sc1ccc(F)cc1)C(=O)Oc1cccc2c1OC(C)(C)C2` [Compound 14, N-methyl-N-4-fluorophenylthio-2,3-dihydro-2,2-dimethyl-7-benzofuranyl carbamate], for which the mortality at 0.05 ppm in data set [1] was determined as 100%. The same compound gave an LD50 in data set [2] of 25 to 125 mg/kg. The mortality at 0.64 ppm in data set [3] (setting [8]) was 92%.
Regarding `CN(Sc1ccc(Br)cc1)C(=O)Oc1cccc2c1OC(C)(C)C2` [Compound 13], in data set [1], the mortality at 0.05 ppm was 93%. For the same compound, the LD50 in data set [2] fell in the range of 25 to 125 mg/kg. Besides, in data set [3] (setting [8]), the mortality at 0.64 ppm amounted to 98%.
For the compound `CN(SC(Cl)(Cl)Cl)C(=O)Oc1cccc2c1OC(C)(C)C2` [Compound 1, N-methyl-N-trichloromethylthio-2,3-dihydro-2,2-dimethyl-7-benzofuranyl carbamate], the mortality at 0.05 ppm in data set [1] amounted to 46%. Also, the mortality at 5 ppm in data set [4] came out at 100%. This compound also displayed a median lethal dose (LD50) in data set [2] of 125 to 250 mg/kg. In addition, the mortality at 16 ppm in data set [6] (topical) was 15%. Besides, the mortality at 100 ppm in data set [6] (setting [9]) is 100%. In data set [3] (setting [8]), the mortality at 0.64 ppm was found to be 91%. Further, the mortality at 4 ppm in data set [3] is 100%.
Consider `CN(SC(Cl)=C(Cl)Cl)C(=O)Oc1cccc2c1OC(C)(C)C2` [Compound 5, N-methyl-N-trichlorovinylthio-2,3-dihydro-2,2-dimethyl-7-benzofuranyl carbamate], for which the mortality at 16 ppm in data set [6] (topical) is 47%. Further, the mortality at 100 ppm in data set [6] (setting [9]) amounted to 100%. For the same compound, in data set [3] (setting [8]), the mortality at 0.64 ppm worked out at 100%. Further, the mortality at 4 ppm in data set [3] was found to be 100%.
As to `CCSN(C)C(=O)Oc1cccc2c1OC(C)(C)C2` [Compound 7, N-methyl-N-ethylthio-2,3-dihydro-2,2-dimethyl-7-benzofuranyl carbamate], the mortality at 0.05 ppm in data set [1] came out at 26%. Besides, the median lethal dose (LD50) in data set [2] lay within 25 to 125 mg/kg. Also, in data set [3] (setting [8]), the mortality at 0.64 ppm was determined as 92%.
In the case of `CN(SN(C)C(=O)Oc1cccc2c1OC(C)(C)C2)C(=O)Oc1cccc2c1OC(C)(C)C2` [Bis[O-(2,3-dihydro-2,2-dimethyl-7-benzofuranyl]-N-methylcarbamyl] sulfide], the mortality at 100 ppm in data set [6] (read-out: control of American cockroaches) was 100%. In data set [3] (read-out: control of aphids), the mortality at 0.64 ppm was 100%.
Regarding `CCCCSN(C)C(=O)Oc1cccc2c1OC(C)(C)C2` [Compound 6], in data set [1], the mortality at 0.05 ppm amounted to 100%. Moreover, in data set [2], the median lethal dose (LD50) lay in the range of 60 to 125 mg/kg. Besides, in data set [6] (topical), the mortality at 16 ppm was 95%. The mortality at 100 ppm in data set [6] (setting [9]) turned out to be 100%. Also, the mortality at 0.64 ppm in data set [3] (setting [8]) is 97%. Besides, in data set [3], the mortality at 4 ppm turned out to be 100%.
For `CN(Sc1ccc(Cl)cc1)C(=O)Oc1cccc2c1OC(C)(C)C2` [Compound 4, 2,3-dihydro-2,2-dimethyl-7-benzofuranyl N-methyl N-p-chlorophenylthiocarbamate], the mortality at 0.05 ppm in data set [1] is 100%. Moreover, the mortality at 5 ppm in data set [4] was 96%. Further, in data set [2], the LD50 lay in the range of 25 to 41 mg/kg. Besides, the mortality at 16 ppm in data set [6] (topical) worked out at 5%. Besides, the mortality at 100 ppm in data set [6] (setting [9]) turned out to be 100%. Further, in data set [3] (setting [8]), the mortality at 0.64 ppm came out at 97%. Also, the mortality at 4 ppm in data set [3] was 100%.
The compound `CN(Sc1ccc(C(C)(C)C)cc1)C(=O)Oc1cccc2c1OC(C)(C)C2` [Compound 16] showed a 50% lethal dose (LD50) in data set [2] of 125 to 250 mg/kg. In addition, in data set [6] (topical), the mortality at 16 ppm was 0%. The mortality at 100 ppm in data set [6] (setting [9]) was 67%. Also, in data set [3], the mortality at 40 ppm was found to be 100%.
For `CCCCCCCCCCCCSN(C)C(=O)Oc1cccc2c1OC(C)(C)C2` [Compound 8, N-methyl-N-dodecylthio-2,3-dihydro-2,2-dimethyl-7-benzofuranyl carbamate], in that order: above 125 mg/kg, 0%, 20% and 100%.
In turn, `CN(Sc1ccccc1)C(=O)Oc1cccc2c1OC(C)(C)C2` [Compound 9, N-methyl-N-phenylthio-2,3-dihydro-2,2-dimethyl-7-benzofuranyl carbamate] came in with an LD50 in data set [2] of 25 to 125 mg/kg. In data set [6] (topical), the mortality at 16 ppm worked out at 37%. Moreover, the mortality at 100 ppm in data set [6] (setting [9]) was 100%. For the same compound, in data set [3] (setting [8]), the mortality at 0.64 ppm came to 98%. Moreover, in data set [3], the mortality at 4 ppm was 100%.
For `CN(Sc1cc(Cl)ccc1Cl)C(=O)Oc1cccc2c1OC(C)(C)C2` [Compound 12], the mortality at 0.05 ppm in data set [1] came to 100%. The LD50 in data set [2] fell in the range of 25 to 125 mg/kg. Besides, the mortality at 0.64 ppm in data set [3] (setting [8]) stood at 61%.
For the compound `Cc1ccc(SN(C)C(=O)Oc2cccc3c2OC(C)(C)C3)cc1` [Compound 10], the mortality at 5 ppm in data set [4] was 76%. In data set [2], this compound came in with a median lethal dose (LD50) of 25 to 125 mg/kg. Also, in data set [6] (topical), the mortality at 16 ppm amounted to 2%. For the same compound, the mortality at 100 ppm in data set [6] (setting [9]) stood at 100%. In data set [3] (setting [8]), the mortality at 0.64 ppm was found to be 96%. The mortality at 4 ppm in data set [3] came out at 100%.
Turning to `CSN(C)C(=O)Oc1cccc2c1OC(C)(C)C2` [Compound 3, 2,3-dihydro-2,2-dimethyl-7-benzofuranyl N-methyl N-methylthiocarbamate], in data set [2], the LD50 lay within 5 to 25 mg/kg. Also, the mortality at 16 ppm in data set [6] (topical) was 100%. For the same compound, the mortality at 100 ppm in data set [6] (setting [9]) stood at 100%. For the same compound, the mortality at 0.64 ppm in data set [3] (setting [8]) is 97%. Further, in data set [3], the mortality at 4 ppm was determined as 100%.
In turn, `CN(Sc1ccc([N+](=O)[O-])cc1)C(=O)Oc1cccc2c1OC(C)(C)C2` [Compound 15] came in with an LD50 in data set [2] of 25 to 60 mg/kg. Moreover, the mortality at 16 ppm in data set [6] (topical) amounted to 97%. Besides, in data set [6] (setting [9]), the mortality at 100 ppm is 100%. In data set [3] (setting [8]), the mortality at 0.64 ppm is 96%. Also, the mortality at 4 ppm in data set [3] was found to be 100%.

These data come from US4013774A (priority 1975, dated 1977).
